Measured values from publication PMC6770581, “New Thalidomide-Resembling Dicarboximides Target ABC50 Protein and Show Antileukemic and Immunomodulatory Activities” (Biomolecules, 2019).

Tests used:
MOLT-4 cells [1] = experiment: MTT cytotoxicity assay, MOLT-4; type: cell-based; details: Homo sapiens, 48 h, mean ± SD
Method: (§1) Human umbilical vein endothelial cells (purchased from Life Technologies, Carlsbad, CA, USA) were cultured according to the manufacturer’s instructions in Medium 200 supplemented with Low Serum Growth Supplement. 1 × 10^4 cells were seeded on each well on a 96-well plate (Nunc, Roskilde, Denmark). The HeLa (human cervix carcinoma, cat. #93021013), CFPAC (human pancreatic adenocarcinoma, cat. #91112501), K562 (chronic myelogenous leukemia, cat. #89121407), HL-60 (acute myelogenous leukemia, cat. #98070106), and MOLT-4 (Human acute T lymphoblastic leukemia, cat. #85011413) cells were purchased from European Collection of Authenticated Cell Cultures (ECACC). They were cultured in an RPMI 1640 medium supplemented with antibiotics (streptomycin, penicillin) and 10% fetal calf serum (20% for HL60), in a 5% CO2-95% air atmosphere. 7 × 10^3 cells were seeded on each well on a 96-well plate (Nunc). 24 hours later the cells were exposed to the test compounds. The aliquots of stock solutions of the test compounds (freshly prepared in DMSO) were added to the cell cultures to yield final concentrations of 1, 10^−1, 10^−2, 10^−3, 10^−4, and 10^−5 mM. The concentration of DMSO in the cell culture medium was 1%. The IC50 value (the concentration of a test compound required to reduce the cell survival fraction to 50% of the control) was calculated from a dose-response curve and used as a measure of cellular sensitivity to a given treatment. The IC50 values are given as means (± standard deviation (SD)) from 2 independent experiments with 4 technical replicates. The cytotoxicity of all compounds was determined by the MTT (3-(4,5-dimethylthiazol-2-yl)-2,5-diphenyltetrazolium bromide) assay (Sigma, St. Louis, MO, USA). Briefly, after 24 h or 48 h of incubation with a given compound, the cells were treated with the MTT reagent and incubation was continued for 2 h. MTT-formazan crystals were dissolved in 20% SDS and 50% DMF at pH 4.7 and VIS light absorption was measured at 570 and 650 nm on a microplate reader FLUOstar Omega (BMG Labtech, Offenburg, Germany). As a control (100% viability), cells grown in the presence of 1% DMSO were used.

CFPAC cells = experiment: MTT cytotoxicity assay, CFPAC; type: cell-based; details: Homo sapiens, 48 h, mean ± SD
Method: as §1

caspase 3 and 7 = experiment: Caspase-3/7 activity (Apo-ONE fluorescent assay) in MOLT-4 cells; type: cell-based, human; details: 5× IC50, 18 h, normalized to 1% DMSO
Method: Louis, MO). The induction of cell apoptosis was analyzed by Apo-ONE® Homogeneous Caspase-3/7 Assay (Promega, Madison, WI, USA). […] The fluorescence in each well was measured in triplicate (excitation at 485 nm, emission measured at 520 nm) using a microplate reader FLUOStar Omega (BMG-Labtech, Offenburg, Germany). For normalization of the data, the caspase activity in the control cells (exposed to 1% DMSO) was taken as 1.0. […] Luminescence was measured (in triplicate) using a microplate reader FLUOStar Omega. For normalization of the data, the caspase activity in the control cells (exposed to 1% DMSO) was taken as 1.0.

K562 cells [2] = experiment: Annexin V/PI or 7-AAD flow cytometry of apoptosis, K562; type: cell-based, human; details: K562, 5× IC50 (3 10 µM, 6 5 µM, 5 5 µM), staurosporine 1 µM; different incubation times for 3, 6 and 5
Method: (§2) The phosphatidylserine on the extracellular side of cell membranes was quantified using an FITC Annexin V Apoptosis Detection Kit I (BD Pharmingen, San Diego, CA, USA) according to the manufacturer’s instruction. 10^6 cells were seeded on a 6-well plate (Nunc). […] The control cells were exposed to 1% DMSO or 1μM staurosporine. After treatment the cells were centrifuged at 700 rpm (120× g) for 5 min, washed twice with cold PBS and then resuspended in 1x binding buffer to a density of 10^6 cells/ml. 100 µL of the resuspended cells was stained in the dark with 5 μl of Annexin V-fluoroscein isothiocyanate (FITC) solution and 10 µL propidium iodide (PI) solution for 15 min at room temperature. The samples were then diluted with 400 μL of a binding buffer and within 1 h analyzed with a flow cytometer (BD FACSCalibur^TM, BD Biosciences, San Jose, CA, USA). After treatment, four populations of cells were assessed: (1) viable (neither apoptotic nor necrotic, Annexin V-FITC and PI negative), (2) apoptotic (Annexin V-FITC positive and PI negative), (3) late apoptotic (Annexin V-FITC and PI positive), and (4) necrotic (Annexin V-FITC negative and PI positive).
0.15 × 10^6 cells/ml were seeded on a 6-well plate (Nunclon, Thermo Fisher Scientific, Waltham, MA, USA). Following 24 h preincubation the cells were treated with either the compound or 1% DMSO (control) for 24 or 48 h. After indicated time, the cells were washed with cold PBS (w/o Mg^2+, Ca^2+), stained with Annexin V (FITC Annexin V Apoptosis Detection Kit with 7-aminoactinomycin D (7-AAD), Biolegend, San Diego, CA, USA) according to manufacturer instructions and analysed using BD FACSCalibur flow cytometer. Obtained Flow Cytometry Standard files were analyzed using BD FACSDiva Software (FACSDiva Version 6.1.3, Becton Dickinson Biosciences, San Jose, CA, USA). The experiment was performed three times in at least two technical replicates.

MOLT-4 cells [3] = experiment: Annexin V/PI flow cytometry of apoptosis, MOLT-4; type: cell-based, human; details: MOLT-4, 3 h, 5× IC50 (3 45 µM, 6 20 µM, 5 100 µM)
Method: as §2

HeLa cells = details: 48 h, MTT, mean ± SD; cited from earlier work
K562 cells [4] = details: 48 h, MTT, mean ± SD; cited from earlier work
HL-60 cells = details: 48 h, MTT, mean ± SD; cited from earlier work
[5] = tested on: HUVEC (human umbilical vein endothelial cells); details: 48 h, MTT, mean ± SD; cited from earlier work

| SMILES | IC50 (MOLT-4 cells [1]) [µM] | IC50 (CFPAC cells) [µM] | activation of caspase 3/7 (caspase 3 and 7) | apoptotic cells, early (LR) and late (UR) (K562 cells [2]) | apoptotic cells (MOLT-4 cells [3]) | IC50 (HeLa cells) [µM] | IC50 (K562 cells [4]) [µM] | IC50 (HL-60 cells) [µM] | IC50 [5] [µM] |
| --- | --- | --- | --- | --- | --- | --- | --- | --- | --- |
| CCC12C(=O)C(CC)(C(c3ccccc3)=C1c1ccccc1)C1C(=O)N(CCN3CCCCC3)C(=O)C12 (stereo not drawn) [Compound 3] | 9 ± 0.6 | > 1000 | strong activation | about 44% | about 76% | > 100 | 2 ± 0.31 | > 100 | > 100 |
| CCC12C(=O)C(CC)(C(c3ccccc3)=C1c1ccccc1)C1C(=O)N(CC(O)CNC(C)C)C(=O)C12 (stereo not drawn) [Compound 5] | 20 ± 2.3 | > 1000 | strong activation | more than 90% | ~78% | > 100 | 1 ± 0.05 | 2 ± 0.05 | > 100 |
| CN(C)CCN1C(=O)C2C(C1=O)C1(c3ccccc3)CC2(c2ccccc2)C(c2ccccc2)=C1c1ccccc1 (stereo not drawn) [Compound 6] | 4 ± 0.2 | 40 ± 3.1 | strong activation | more than 90% | ~99% | 1 ± 0.2 | 1 ± 0.3 | 5 ± 0.24 | > 100 |
